From patent US4532122A, “Anti-trypanosomal activity of platinum co-ordination compounds” (The United States of America as represented by the …, priority 1981, dated 1985)
“Also recorded” adds a separate entry of the source.

Tests used:
Trypanosoma rhodesiense [1] = test: 30-day survival and cure of Trypanosoma rhodesiense-infected mice treated with cisplatin; type: in vivo; conditions: for cure, survival and damage on concurrent treatment: hydrated, trypanosome-infected mice, cisplatin and disulfiram or diethyl dithiocarbamate
Procedure: Laboratory animals of diverse sorts have been employed in studies with trypanosomes. […] This method has been reported in detail: L. Rane, D. S. Rane, and K. E. Kinnamon, Am. J. Trop. Med. Hyg., 25, 395-400 (1976).
(§1) Anti-trypanosomal activity reported in this invention was determined according to the procedure outlined in the article of L. Rane, et al entitled "Screening Large Numbers of Compounds in a Model Based on Mortality of Trypanosoma rhodesiense Infected Mice," The American Journal of Tropical Medicine and Hygiene, Volume 25, No. 3, pages 395-400 ([…]). To summarize, however, experiments were conducted with the Wellcome CT strain of Trypanosoma rhodesiense originally isolated in 1934. The test system is patterned after the one developed and employed in testing of compounds for activity against Plasmodium berghei malaria [see Osdene, et al, New Series of Potential Antimalarial Agents, J. Med. Chem., 10, 431-434 (1967)]. The test system is based on comparisons of responses to test compounds by ICR/HA Swiss mice infected with the strain as expressed in mean survival times compared with mean survival times of untreated controls.
Test mice (of similar age were females and 21 to 25 grams in weight) received an intraperitoneal injection of 0.5 ml of a 1:50,000 dilution of heparinized heart blood drawn from donor mice infected with Trypanosoma rhodesiense 3 days earlier.
Deaths prior to the fourth day (when untreated controls begin to die) were regarded as not related to the infection and were scored as "toxic deaths." Treated animals were kept under observation for 30 days. Parasitemias were monitored by thick blood film smears (taken from tail veins of the mice) every 2 days for the 30-day course of the experiment. Survivors at the end of 30 days were considered cured. […] In calculating mean survival times, toxic deaths and 30 day survivors were not included.
(§2) All groups included 10 mice except where indicated. Therapy was 3 mg/kg
trypanosomes and subsequently given intraperitoneally for number of days
indicated in first column. Disulfiram (250 mg/kgorally) was given exactly
physiologic saline given subcutaneously four times per day. Survival is
given as % survival 30 days following initial therapy.

[2] = Histopathology of mice treated with cisplatin; type: in vivo
From the text: Thus, histopathologic studies were requisite.
Two mice from each of these groups were necropsied at various times following cisplatin treatment. […] Tissues were fixed in 10% neutral buffered formalin, imbedded in paraffin, sectioned to 6-8μ and stained with hematoxylin and eosin.

Trypanosoma rhodesiense [3] = conditions: Kinnamon et al.; peanut oil vehicle; cited from earlier work
[4] = 30-day survival of uninfected (healthy) mice treated with cisplatin, with or without hydration and disulfiram; type: in vivo
Procedure: Ten animals were used in each of three test procedures for the three regimens of drug dosing. The test procedures included: no hydration of mice; hydration of mice; and hydration plus disulfiram administration to the animals.
as §2
indicated. Disulfiram (250 mg/kgorally) was given exactly four hours
Hydration was 3 ml of physiologic saline
given subcutaneously four times per day. Survival is given as % survival
30 days following initial therapy.
^a Average survival from four experiments with 10 mice per experiment

Trypanosoma rhodesiense [5] = test: Parasitemia in infected mice, monitored by thick blood film smears; type: in vivo
Procedure: as §1
By using a standard inoculum of 1×10^6 trypanosomes, it was possible to produce a uniform disease fatal to 100% of untreated animals within four to six days, with a mean survival time of 4.45±0.24 days. Test mice (of similar age were females and 21 to 25 grams in weight) received an intraperitoneal injection of 0.5 ml of a 1:50,000 dilution of heparinized heart blood drawn from donor mice infected with Trypanosoma rhodesiense 3 days earlier.
Deaths prior to the fourth day (when untreated controls begin to die) were regarded as not related to the infection and were scored as "toxic deaths." Treated animals were kept under observation for 30 days. Parasitemias were monitored by thick blood film smears (taken from tail veins of the mice) every 2 days for the 30-day course of the experiment. Survivors at the end of 30 days were considered cured. An increase of 100% in mean survival time over control animals was considered as a minimum effective response. In calculating mean survival times, toxic deaths and 30 day survivors were not included.
The therapeutic regimen was that described in Examples 1 through 3.

Trypanosoma rhodesiense [6] = test: Subinoculation of tissues (blood, heart, brain) of cured mice into healthy recipient mice; type: in vivo, Trypanosoma rhodesiense in mice; conditions: donors: cisplatin with hydration plus disulfiram
From the text: The considerable and complex nature of problems in various developing countries of tropical Africa have been worsened by the increasing incidents of trypanosomiasis. Drugs for the management of this highly fatal infection have been generally inadequate or/and highly toxic to the victim. The present invention relates to a novel means for alleviating the toxic effects of an agent useful in the treatment of highly fatal trypanosome infections in animals. […] However, cures have been achieved safely by concurrent hydration of the animals and oral dosing with disulfiram. This procedure was firmly established as affording parasitologic cures of the experimental animals by subinoculation of tissues (blood, brain, heart) into recipient mice from mice cured of trypanosomiasis in accordance with the method of this invention.
Some animals suffered relapses 6 to 14 days after the last doses. […] All survivors at 30 days were sacrificed, and tissues (blood; heart; brain) subinoculated into healthy mice. […] Thus, no latent trypanosomes had survived the therapy.

[7] = no hydration, 3 mg/kg/day i.p., 7 days
[8] = with hydration, 3 mg/kg/day i.p., 7 days
[9] = hydration + disulfiram, cisplatin 3 mg/kg/day, 6 days
[10] = with hydration, 3 mg/kg/day, 6 days
[11] = mice treated with cisplatin alone

CCN(CC)C(=S)S [diethyl dithiocarbamate]
cure, survival and damage on concurrent treatment (Trypanosoma rhodesiense [1]): effected cures of the infection with very good survival and little damage to test animals

CCN(CC)C(=S)SSC(=S)N(CC)CC [Disulfiram, bis-(diethylthiocarbamoyl) disulfide]
anti-trypanosomal activity of disulfiram alone (Trypanosoma rhodesiense [1]; disulfiram alone, model test system): lack anti-trypanosomal activity
cure, survival and damage on concurrent treatment (Trypanosoma rhodesiense [1]): effected cures of the infection with very good survival and little damage to test animals
protection from toxic effects of cisplatin ([2]; oral disulfiram given with cisplatin): protected the kidneys and gastrointestinal tracts from the toxic effects

N.N.[Cl][Pt][Cl] [Cisplatin, cis-diamminedichloroplatinum (II)]
anti-trypanosomal effects in prior work (Trypanosoma rhodesiense [3]): anti-trypanosomal effects at dose levels which were unsuitably toxic to the test animals
30-Day survival ([4]; hydration + disulfiram (250 mg/kg orally), cisplatin 3 mg/kg/day i.p., 6 days): 100%
30-Day survival ([4]; hydration + disulfiram (250 mg/kg orally), cisplatin 3 mg/kg/day i.p., 7 days, average of four experiments): 100%
mortality from cisplatin administration ([4]; hydration with or without disulfiram): ameliorated by hydration, with or without use of disulfiram
30-Day survival ([4]; no hydration, 3 mg/kg/day i.p., 5 days): 100%
30-Day survival ([4]; no hydration, 3 mg/kg/day i.p., 6 days): 10%
30-Day survival [4, 7]: 0%
30-Day survival ([4]; with hydration, 3 mg/kg/day i.p., 6 days): 100%
30-Day survival [4, 8]: 90%
clearance of trypanosomes from bloodstream (Trypanosoma rhodesiense [5]; cisplatin alone, 3 mg/kg/day, 5 days): failed to clear the bloodstream of trypanosomes
clearance of trypanosomes from blood (Trypanosoma rhodesiense [5]; [9]): temporarily cleared of trypanosomes; also recorded: Blood of all mice was cleared of trypanosones
relapse of parasitemia (Trypanosoma rhodesiense [5]; [9]): relapses of parasitemia occurred; also recorded: Relapse of parasitemia
clearance of trypanosomes from blood (Trypanosoma rhodesiense [5]; no hydration, 3 mg/kg/day, 7 days): Blood of all mice was cleared of trypanosones
time of relapse after the last doses (Trypanosoma rhodesiense [5]; some animals, hydration + disulfiram, cisplatin 6 daily doses): 6 to 14 days
clearance of trypanosomes from blood (Trypanosoma rhodesiense [5]; [10]): Blood of all mice was cleared of trypanosones
relapse of parasitemia (Trypanosoma rhodesiense [5]; [10]): Relapse of parasitemia
clearance of trypanosomes from blood (Trypanosoma rhodesiense [5]; with hydration, 3 mg/kg/day, 7 days): Blood of all mice was cleared of trypanosones
trypanosome infection in recipient mice after subinoculation of tissues of survivors (Trypanosoma rhodesiense [6]): did not produce the trypanosomiasis in the recipient mice; also recorded: No recipient mice developed trypanosome infection
curative effects on Trypanosoma rhodesiense infections (Trypanosoma rhodesiense [1]; 3 mg/kg/day for 7 days): does exert curative effects
cure, survival and damage on concurrent treatment (Trypanosoma rhodesiense [1]): effected cures of the infection with very good survival and little damage to test animals
30-Day survival of trypanosome-infected mice (Trypanosoma rhodesiense [1]; hydration + disulfiram (250 mg/kg orally), cisplatin 3 mg/kg/day i.p., 6 days, average of four experiments): 62.5%
cure of Trypanosoma rhodesiense infection (Trypanosoma rhodesiense [1]; hydration plus disulfiram, cisplatin 3 mg/kg daily for seven days): effective in curing mice; also recorded: fully curative, and not merely palliative
30-Day survival of trypanosome-infected mice (Trypanosoma rhodesiense [1]; [7]): 0%
30-Day survival of trypanosome-infected mice (Trypanosoma rhodesiense [1]; [8]): 57%
cure of Trypanosoma rhodesiense infection (Trypanosoma rhodesiense [1]; with hydration, 7-day regimen): effective in curing mice
renal cortex findings ([2]; cisplatin alone, necropsied on day 18 or later): multifocal accumulations of lymphoplasmacytic inflammatory cells with areas of tubular regeneration
early renal lesions [2, 11]: acute proximal and distal tubular necrosis
lesions other than renal [2, 11]: colonic and jejunal enteritis, and interstitial pneumonia with edema and vascular congestion
renal lesions (frequency) [2, 11]: highly common
